According to PubChem BioAssay AID248 (DTP/NCI, 2004):
Where “and” joins values, the source holds several entries; their conditions need not be identical. Equal values may be shown once. Toxic doses and inconclusive results are not listed. Cut-off read from the data, not from the text of the source: active = T/C of 150% or more; inactive = T/C below 125%.

System: L1210 leukemia ip in BDF1 mice, survival T/C
Assay: NCI In Vivo Anticancer Drug Screen. Data for tumor model L1210 Leukemia (intraperitoneal) in B6D2F1 (BDF1) mice
Details: endpoint: mean survival time, higher = longer survival
Method in brief: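 Tumor cells were implanted, animals were treated, and survival was followed. The result divides the treated measurement by the vehicle-control measurement.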

[1] = dose: 100.0 mg/kg/injection, schedule: Q01DX009 (ip), vehicle: Klucel (hydroxypropylcellulose) (HPC)
[2] = dose: 100.0 mg/kg/injection, schedule: Q04DX002 (ip), vehicle: Klucel (hydroxypropylcellulose) (HPC)
[3] = dose: 100.0 mg/kg/injection, schedule: Q04DX003 (ip), vehicle: saline with Tween-80
[4] = dose: 200.0 mg/kg/injection, schedule: Q04DX003 (ip), vehicle: saline with Tween-80
[5] = dose: 400.0 mg/kg/injection, schedule: Q04DX003 (ip), vehicle: saline with Tween-80
[6] = dose: 100.0 mg/kg/injection, schedule: Q04DX003 (ip), vehicle: Klucel (hydroxypropylcellulose) (HPC)
[7] = dose: 200.0 mg/kg/injection, schedule: Q04DX003 (ip), vehicle: Klucel (hydroxypropylcellulose) (HPC)
[8] = dose: 400.0 mg/kg/injection, schedule: Q04DX003 (ip), vehicle: Klucel (hydroxypropylcellulose) (HPC)

Measured: T/C

CCCNC(=O)c1cccc2c1-c1ccccc1C2=O
inactive: dose: 100.0 mg/kg/injection, schedule: Q01DX001 (ip), vehicle: other 93 % of control | dose: 200.0 mg/kg/injection, schedule: Q01DX001 (ip), vehicle: other 93 % of control | dose: 400.0 mg/kg/injection, schedule: Q01DX001 (ip), vehicle: other 87 % of control

NC(=O)N1C(=O)C=CC1=O
inactive: dose: 50.0 mg/kg/injection, schedule: Q04DX002 (ip), vehicle: Klucel (hydroxypropylcellulose) (HPC) 96 % of control | [1] 105 % of control | [2] 100 % of control | dose: 200.0 mg/kg/injection, schedule: Q01DX009 (ip), vehicle: Klucel (hydroxypropylcellulose) (HPC) 91 % of control

N#CC1(C(N)=O)OC1c1ccccc1Cl (stereo not given)
inactive: dose: 100.0 mg/kg/injection, schedule: Q04DX003 (ip), vehicle: carboxymethylcellulose (CMC) 97 % of control | dose: 200.0 mg/kg/injection, schedule: Q04DX003 (ip), vehicle: carboxymethylcellulose (CMC) 98 % of control

C=C1C(=O)O[C@@H]2C[C@@H](C)[C@@H]3[C@@H](OC4OC(COC(C)=O)C(O)C(O)C4O)CC(=O)[C@@]3(C)C[C@H]12 (stereo not given in full)
inactive: dose: 6.4 mg/kg/injection, schedule: Q01DX009 (ip), vehicle: saline 101 % of control | dose: 9.6 mg/kg/injection, schedule: Q01DX009 (ip), vehicle: saline 97 % of control | dose: 14.0 mg/kg/injection, schedule: Q01DX009 (ip), vehicle: saline 104 % of control | dose: 22.0 mg/kg/injection, schedule: Q01DX009 (ip), vehicle: saline 98 % of control | [3] 100 % of control | [4] 89 % of control | [5] 94 % of control

CC(C)C(CN=C(N)N)c1cccc2ccccc12 (stereo not given)
inactive: dose: 12.5 mg/kg/injection, schedule: Q01DX009 (ip), vehicle: saline with Tween-80 100 % of control | dose: 25.0 mg/kg/injection, schedule: Q01DX009 (ip), vehicle: saline with Tween-80 103 % of control | dose: 25.0 mg/kg/injection, schedule: Q04DX002 (ip), vehicle: saline with Tween-80 100 % of control | dose: 50.0 mg/kg/injection, schedule: Q01DX009 (ip), vehicle: saline with Tween-80 91 % of control | dose: 50.0 mg/kg/injection, schedule: Q04DX002 (ip), vehicle: saline with Tween-80 100 % of control

NCCN1Cc2ccccc2CCc2ccccc2C1
inactive: dose: 25.0 mg/kg/injection, schedule: Q01DX009 (ip), vehicle: Klucel (hydroxypropylcellulose) (HPC) 111 % of control | dose: 50.0 mg/kg/injection, schedule: Q01DX009 (ip), vehicle: Klucel (hydroxypropylcellulose) (HPC) 105 % of control | [1] 93 % of control

Cc1cc(=O)n(-c2ccc(N)cc2)n1C
inactive: [6] 100 % of control | [7] 100 % of control | [8] 101 % of control

N/N=C(/C=N/N)C(O)CO (stereo not given)
inactive: dose: 25.0 mg/kg/injection, schedule: Q01DX001 (ip), vehicle: saline with Tween-80 95 % of control | dose: 50.0 mg/kg/injection, schedule: Q01DX001 (ip), vehicle: saline with Tween-80 98 % of control | dose: 100.0 mg/kg/injection, schedule: Q01DX001 (ip), vehicle: saline with Tween-80 89 % of control and 92 % of control | dose: 400.0 mg/kg/injection, schedule: Q01DX001 (ip), vehicle: saline with Tween-80 92 % of control

CCN1CCC2CN(C(=O)Nc3ccccc3)CCN2C1=O (stereo not given)
inactive: [3] 98 % of control | [4] 90 % of control | [5] 87 % of control

CC(O)CN(CCN(CC(C)O)CC(C)O)CCN(CC(C)O)CC(C)O.O=S(=O)([O-])[O-].[Cu+2] (stereo not given)
inactive: dose: 5.0 mg/kg/injection, schedule: Q01DX001 (ip), vehicle: saline 102 % of control | dose: 10.0 mg/kg/injection, schedule: Q01DX001 (ip), vehicle: saline 91 % of control

[Co+3].[NH-]CC(=O)O.[NH-]CC(=O)O.[NH-]CC(=O)O
inactive: dose: 200.0 mg/kg/injection, schedule: Q04DX002 (ip), vehicle: saline with Tween-80 122 % of control | dose: 400.0 mg/kg/injection, schedule: Q04DX002 (ip), vehicle: saline with Tween-80 115 % of control

CCCCCCCCCCCC[N+](C)(C)C (tested in a mixture with another compound)
inactive: dose: 1.25 mg/kg/injection, schedule: Q01DX015 (ip), vehicle: saline 101 % of control | dose: 2.5 mg/kg/injection, schedule: Q01DX015 (ip), vehicle: saline 95 % of control | dose: 3.12 mg/kg/injection, schedule: Q01DX009 (ip), vehicle: saline 92 % of control | dose: 3.12 mg/kg/injection, schedule: Q04DX003 (ip), vehicle: saline 98 % of control | dose: 5.0 mg/kg/injection, schedule: Q01DX015 (ip), vehicle: saline 101 % of control | dose: 5.0 mg/kg/injection, schedule: Q04DX003 (ip), vehicle: saline 107 % of control | dose: 6.25 mg/kg/injection, schedule: Q01DX009 (ip), vehicle: saline 94 % of control | dose: 6.25 mg/kg/injection, schedule: Q04DX003 (ip), vehicle: saline 98 % of control | dose: 10.0 mg/kg/injection, schedule: Q01DX015 (ip), vehicle: saline 98 % of control | dose: 10.0 mg/kg/injection, schedule: Q04DX003 (ip), vehicle: saline 112 % of control | dose: 12.5 mg/kg/injection, schedule: Q01DX009 (ip), vehicle: saline 105 % of control | dose: 12.5 mg/kg/injection, schedule: Q04DX003 (ip), vehicle: saline 95 % of control | dose: 18.0 mg/kg/injection, schedule: Q01DX009 (ip), vehicle: saline 90 % of control | dose: 20.0 mg/kg/injection, schedule: Q01DX015 (ip), vehicle: saline 98 % of control | dose: 20.0 mg/kg/injection, schedule: Q04DX003 (ip), vehicle: saline 93 % of control | dose: 37.5 mg/kg/injection, schedule: Q01DX001 (ip), vehicle: saline 101 % of control | dose: 40.0 mg/kg/injection, schedule: Q01DX015 (ip), vehicle: saline 100 % of control | dose: 40.0 mg/kg/injection, schedule: Q04DX003 (ip), vehicle: Klucel (hydroxypropylcellulose) (HPC) 90 % of control

CCCCc1c(C)nc(N)[nH]c1=O
inactive: [2] 104 % of control | dose: 200.0 mg/kg/injection, schedule: Q04DX002 (ip), vehicle: Klucel (hydroxypropylcellulose) (HPC) 100 % of control | dose: 400.0 mg/kg/injection, schedule: Q04DX002 (ip), vehicle: Klucel (hydroxypropylcellulose) (HPC) 100 % of control

C=C1C(=O)OC2C1C1CC1(C)C1CC(OC(C)=O)C(C)C21O (stereo not given)
inactive: dose: 50.0 mg/kg/injection, schedule: Q01DX001 (ip), vehicle: water 103 % of control | dose: 100.0 mg/kg/injection, schedule: Q01DX001 (ip), vehicle: water 92 % of control | dose: 200.0 mg/kg/injection, schedule: Q01DX001 (ip), vehicle: water 103 % of control

Cc1ccc(C(C)C)c(OCCN2CC=CC2)c1
inactive: dose: 100.0 mg/kg/injection, schedule: Q01DX001 (ip), vehicle: saline 98 % of control | dose: 200.0 mg/kg/injection, schedule: Q01DX001 (ip), vehicle: saline 94 % of control

S=C1NCc2ccccc2N1
inactive: dose: 12.5 mg/kg/injection, schedule: Q04DX003 (ip), vehicle: Klucel (hydroxypropylcellulose) (HPC) 93 % of control | dose: 25.0 mg/kg/injection, schedule: Q04DX003 (ip), vehicle: Klucel (hydroxypropylcellulose) (HPC) 95 % of control | dose: 50.0 mg/kg/injection, schedule: Q04DX003 (ip), vehicle: Klucel (hydroxypropylcellulose) (HPC) 103 % of control | dose: 100.0 mg/kg/injection, schedule: Q01DX001 (ip), vehicle: Klucel (hydroxypropylcellulose) (HPC) 102 % of control

O=C1C=CC(CCCCCn2ccc(=O)[nH]c2=O)C(=O)N1 (stereo not given)
inactive: dose: 100.0 mg/kg/injection, schedule: Q04DX003 (ip), vehicle: saline 105 % of control | dose: 200.0 mg/kg/injection, schedule: Q04DX003 (ip), vehicle: saline 96 % of control | dose: 400.0 mg/kg/injection, schedule: Q04DX003 (ip), vehicle: saline 97 % of control

O=[N+]([O-])c1ccc(Oc2c(Cl)cccc2Cl)cc1
inactive: [6] 96 % of control | [7] 95 % of control | [8] 96 % of control

CCCCCCCCCOc1ccc2ccccc2c1
inactive: [3] 102 % of control | [4] 97 % of control | [5] 92 % of control

O=S1(=O)OC(c2ccccc2)(c2ccccc2)c2ccccc21
inactive: dose: 100.0 mg/kg/injection, schedule: Q01DX001 (ip), vehicle: carboxymethylcellulose (CMC) 100 % of control | dose: 200.0 mg/kg/injection, schedule: Q01DX001 (ip), vehicle: carboxymethylcellulose (CMC) 100 % of control | dose: 400.0 mg/kg/injection, schedule: Q01DX001 (ip), vehicle: carboxymethylcellulose (CMC) 100 % of control
